Test results reported in publication PMC12147183, “Lacritin cleavage-potentiated targeting of iron - respiratory reciprocity promotes bacterial death” (The Journal of Biological Chemistry, 2025).
Peptide text beside a SMILES is read from it.

What was measured:
OprF = target: T1, OprF (Pseudomonas aeruginosa, UniProt P13794); assay: Affinity pulldown/tandem mass spectrometry of PA14 lysate; format: binding, Pseudomonas aeruginosa PA14; details: 500 mM KCl eluate, n-octyl-β-D-glucopyranoside lysate, 4 °C
T1 construct: endogenous in cells; host or cells: P. aeruginosa PA14 overnight culture, n-octyl-β-D-glucopyranoside lysate
T1 sequence (P13794 25-350): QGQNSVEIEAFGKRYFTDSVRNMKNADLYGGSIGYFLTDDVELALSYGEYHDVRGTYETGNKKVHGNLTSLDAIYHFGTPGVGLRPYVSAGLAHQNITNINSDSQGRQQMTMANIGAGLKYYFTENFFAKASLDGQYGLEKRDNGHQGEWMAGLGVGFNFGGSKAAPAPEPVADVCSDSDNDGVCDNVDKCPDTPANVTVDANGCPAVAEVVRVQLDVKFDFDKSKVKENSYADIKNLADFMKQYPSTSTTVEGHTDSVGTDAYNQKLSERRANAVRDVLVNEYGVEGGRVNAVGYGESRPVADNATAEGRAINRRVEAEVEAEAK
Description: (§1) For generation of N-104 and negative control C-95 affinity columns, 2 mg of Cys(N)-N-104 or Cys(N)-C-95 in 2 ml of 50 mM Tris (pH 8.5), 5 mM EDTA coupling buffer were incubated with an equal volume of suspended SulfoLink Coupling Resin with mixing for 3 h at room temperature. Columns were subsequently washed with 3 ml of coupling buffer followed by 2 ml of freshly prepared 50 mM L-cysteine for 2 h at room temperature for quenching and then washed with 10 ml of 1 M NaCl prior to use or storage in 0.05% sodium azide at 4 °C. Coupling efficiency was determined using fluorescence from N-104's penultimate C-terminal tryptophan as 0.65 ± 0.04 μmole per ml of resin.
(§2) Screening for PA14 proteins with N-104 affinity columns was initiated from pelleted 2.5 L overnight cultures that were washed with ice-cold 10 mM Na2HPO4, 1.8 mM KH2PO4, 2.7 mM KCl, 137 mM NaCl (pH 7.2) and lysed by sonication in 25 ml of 50 mM Tris (pH 7.5), 1 mM MgCl2, 200 mM n-octyl-β-D-glucopyranoside with protease inhibitors. Sonication involved five cycles of 15 s with 45 s rest on ice followed by vortexing on ice for 30 min before being rocked end-over-end overnight at 4 °C. After centrifugation, the supernatant was subjected to end-over-end mixing with a 3-ml pre-column of Pierce Agarose followed by equal division by protein concentration for end-over-end incubation with 1 ml N-104 or C-95 columns at 4 °C. […]

[1] = system: ^14C-spermidine uptake by PA14; format: cell-based, Pseudomonas aeruginosa
Description: 100 μl aliquots (0.8 × 10^8 cfu) of PA14 cell cultures in 1 mM Na2HPO4, 0.18 mM KH2PO4, 0.27 mM KCl, 13.7 mM NaCl without or with 1, 10, 25, 50 or 100 μM N-104 (or N-80/C-25 or C-95) for 45 min at 35 °C were incubated with 1 μl of 10 mM [1,4-^14C]putrescine (0.1 mCi/ml; ARC-0245–250, American Radiolabeled Chemicals) or [1,4-^14C]spermidine (0.1 mCi/ml; ARC-3138–50, American Radiolabeled Chemicals) for 15 min at 35 °C. Cell pellets were washed four times with 100 μl of 10 mM Na2HPO4, 1.8 mM KH2PO4, 2.7 mM KCl, 137 mM NaCl (pH 7.2) and then transferred to 4 ml of scintillation fluid (1200.437, PerkinElmer OptiPhase HiSafe 3) for analysis in a Beckman Coulter LS6500. Also assessed was radioactivity from the last wash. Single-molecule transportation per cell was estimated using standard curves for each radiolabeled polyamine.

YaiW = assay: Affinity pulldown/tandem mass spectrometry of PA14 lysate; format: binding, Pseudomonas aeruginosa PA14; details: 500 mM KCl eluate, n-octyl-β-D-glucopyranoside lysate, 4 °C
Description: as §1, §2

PA14 transcriptome = assay: RNAseq of N-104 treated PA14; format: cell-based, Pseudomonas aeruginosa; details: 20 μM N-104 versus N-80/C-25, 45 min at 35 °C, 5 × 10^8 cfu/ml
Description: For RNA extraction and sequencing of P. aeruginosa, we used diethylpyrocarbonate (DEPC) treated Eppendorf tubes (except for those used for synthetic peptide incubation). An aliquot of PA14 overnight culture grown for 3.5 to 4.0 h in LB broth to OD600 = 0.5 (5.0 × 10^8 cells) was gently pelleted (12,000g, 30 s), resuspended in 0.5 ml of 1 mM Na2HPO4, 0.18 mM KH2PO4, 0.27 mM KCl, 13.7 mM NaCl (pH 7.2) and incubated with five or 20 μM N-104, or 20 μM N-80/C-25 for 45 min at 35 °C or left untreated. After pelleting (12,000g, 5 min), cells were resuspended in 0.5 ml of TE buffer supplemented with 1 ml of RNA-protect Bacteria Reagent with 5 s of vortexing prior to incubation for 5 min at room temperature, pelleting (5000g, 10 min), and lysis initiated in 200 μl of 15 mg/ml lysozyme together with 20 μl of 2.5 mg/ml proteinase K, both in TE buffer. […] Library construction and sequencing were performed by UVA's Genome Analysis and Technology Core involving mRNA enrichment via the NEBNext rRNA Depletion Kit (Bacteria), and transcriptome sequencing on a Next Seq 500 Mid Output platform, with 150-bp paired-end reads. The range of raw reads for each sample varied from 8 to 10 million, thus ensuring an optimal depth of sequencing that was analyzed by UVA's Bioinformatics Core facility.

SMILES | binding of outer membrane OprF to immobilized peptide (OprF) | effect on ^14C-spermidine uptake ([1]; 1 to 100 μM peptide) | affinity of outer membrane YaiW for immobilized peptide (YaiW) | IC50 [1] | effect on PA14 respiratory gene expression (PA14 transcriptome)
C[C@H](NC(=O)CNC(=O)[C@@H](NC(=O)[C@H](CO)NC(=O)[C@H](CC(=O)O)NC(=O)[C@H](CO)NC(=O)[C@H](CO)NC(=O)[C@H](C)NC(=O)[C@H](CC(=O)O)NC(=O)[C@@H](N)CCC(=O)O)[C@@H](C)O)C(=O)N[C@@H](CC(=O)O)C(=O)N1CCC[C@H]1C(=O)N[C@@H](C)C(=O)N[C@@H](CCC(N)=O)C(=O)N[C@@H](CCC(=O)O)C(=O)N[C@@H](C)C(=O)NCC(=O)N[C@H](C(=O)N[C@@H](CO)C(=O)N[C@@H](CCCCN)C(=O)N1CCC[C@H]1C(=O)N[C@@H](CC(N)=O)C(=O)N[C@@H](CCC(=O)O)C(=O)N[C@@H](CCC(=O)O)C(N)=O)[C@@H](C)O [C-95, reference compound] (H-EDASSDSTGADPAQEAGTSKPNEE-NH2) | binds OprF | had no effect |  |  | 
CC(=O)N[C@@H](C)C(=O)N[C@@H](CCC(N)=O)C(=O)N[C@@H](CCCCN)C(=O)N[C@@H](CC(C)C)C(=O)N[C@@H](CC(C)C)C(=O)N[C@@H](CCCCN)C(=O)N[C@@H](CCCCN)C(=O)N[C@@H](Cc1ccccc1)C(=O)N[C@@H](CO)C(=O)N[C@@H](CC(C)C)C(=O)N[C@@H](CC(C)C)C(=O)N[C@@H](CCCCN)C(=O)N1CCC[C@H]1C(=O)N[C@@H](Cc1c[nH]c2ccccc12)C(=O)N[C@@H](C)C(=O)O [N-104] (Ac-AQKLLKKFSLLKPWA-OH) |  |  | selective affinity | 10 µM | promotes the expression of genes regulating anaerobic respiration while largely suppressing those involved in aerobic respiration
